Data reported in patent publication US20240254145A1, “SALT FORM AND CRYSTAL FORM OF HETEROCYCLIC SUBSTITUTED PURINONE DERIVATIVE” (ZAI LAB (SHANGHAI) CO., LTD., priority 2021, published 2024).
pIC50: −log10 of the molar value.

Assays:
[1] = Pharmacokinetic evaluation in rat plasma after oral administration; format: in vivo; settings: SD male rats, 30 mg/kg
Method: The test compound was mixed with 0.5% CMC-Na+0.2% (V:V) Tween80 aqueous solution, vortexed, and sonicated to prepare a 3 mg/mL homogeneous suspension. SD male rats were selected, and orally administered with the candidate compound solution at a dose of 30 mg/kg. Whole blood was collected for a certain period of time and prepared into plasma. The drug concentration was analyzed by the LC-MS/MS method, and the pharmacokinetic parameters were calculated using Phoenix WinNonlin software (Pharsight, USA).
Cmax: highest plasma drug concentration after administration; Tmax: time required to reach the peak concentration after administration; T1/2: time required for the plasma drug concentration to decrease by half; Tlast: time at the last detection point; AUC0-last: area under the drug-time curve, which refers to the area enclosed by the plasma drug concentration curve and the time axis.

[2] = Hygroscopicity study by dynamic vapor sorption (DVS); format: physicochemical; settings: 25° C. and 80% RH
Method: Instrument model: SMS DVS intrinsic dynamic moisture sorption analyzer
Test conditions: a sample (about 10 mg) is taken and placed in the DVS sample tray for testing.
The detailed DVS parameters are as follows:
Equilibrium: dm/dt=0.01%/min
RH (%) test increment: 5% RH
RH (%) test increment range: 0% to 95% to 0%
The evaluation and classifications of hygroscopicity are shown as follows:
Sufficient moisture is absorbed to produce a fluid: Deliquescence; ΔW %≥15%: High hygroscopicity; 15%>ΔW %≥2%: Hygroscopicity; 2%>ΔW %≥0.2%: Slight hygroscopicity; ΔW %<0.2%: No hygroscopicity or almost no hygroscopicity: ΔW % indicates hygroscopic weight gain of the sample at 25±1° C. and 80±2% RH.
The crystal form B of the compound of formula (II-1) (about 10 mg) was taken and placed in the DVS sample tray for testing.

[3] = Solid-state stability test of crystal form B (XRPD and HPLC purity); format: physicochemical
Method: Based on the “Guideline for Stability Testing of Pharmaceutical Ingredients and Formulations” (Chinese Pharmacopoeia 2020 Edition, General Rule 9001), in order to evaluate the solid-state stability of the crystal form B of the compound of formula (II-1), the solid-state stability of the crystal form B was investigated in terms of the influencing factors (high temperature, high humidity, and light) and the conditions of 60° C./75% RH and 40° C./75% RH. The crystal form B was placed at high temperature (60° C., open) and high humidity (25° C./92.5° RH, open) for 10 days respectively, and then placed open under visible and UV light (samples of the shaded control group were placed at the same time and wrapped in tin foil) according to the ICH conditions (total illuminance up to 1,200,000 Lux hrs in visible and 200 W hrs/m^2 in UV), for 1, 2, and 3 months at 60° C./75% RH (open), and for 1, 2, and 3 months at 40° C./75% RH (open).
About 10 mg of this crystal form was accurately weighed and placed in a dry and clean glass vial, spread into a thin layer, and left open under the test conditions of the influence factors and the accelerated conditions. Samples placed under light conditions (visible light 1200000 Lux hrs, UV 200 W hrs/m^2) were in a clear glass vial with full exposure, and samples for XRPD test were placed separately.
After the sample was taken out at the time point, it was covered, sealed with a sealing film, and stored in a −20° C. refrigerator. When preparing the sample, the sample was taken out of the refrigerator and warmed to room temperature, and dissolved with 25 mL of diluent (acetonitrile/water, 1:1, v/v) to obtain a solution with a concentration of approximately 0.5 mg/mL. The solution was analyzed using the liquid chromatography, and the results of the test were compared with the initial test results on day 0.
Preparation of standard solution on day 0: About 12.5 mg of this crystal form was weighed and placed in a 25 mL volumetric flask, dissolved with […], and diluted to the mark.
At the same time, HPLC tests were performed on all stability samples.

Human DNA-PK = molecular target: T1, Human DNA-PK (Homo sapiens, UniProt P78527); assay: DNA-dependent protein kinase (DNA-PK) inhibitory activity screening assay (Eurofins, HTRF); format: biochemical; settings: ATP: 10 μM, 50 nM GST-cMyc-p53
T1 construct: purchased Eurofins (Eurofins Pharma Discovery Service; outsourced assay)
Method: This experiment was tested in the Eurofins
Human DNA-PK; Mg/ATP; GST-cMyc-p53; EDTA; Ser15 antibody; ATP: 10 μM.
DNA-PK(h) was incubated in assay buffer containing 50 nM GST-cMyc-p53 and Mg/ATP (according to the required concentration). The reaction was initiated by adding the Mg/ATP mixture. After incubation at room temperature for 30 minutes, the reaction was stopped by adding a stop solution containing EDTA. Finally, detection buffer (containing labeled anti-GST monoclonal antibody and europium-labeled anti-phospho Ser15 antibody against phosphorylated p53) was added. The plate was then read in time-resolved fluorescence mode, and the homogeneous time-resolved fluorescence (HTRF) signal was determined according to the formula HTRF=10000×(Em665 nm/Em620 nm).

[4] = test system: human lung cancer NCI-H1703 xenograft tumor; assay: In vivo pharmacodynamic study, NCI-H1703 subcutaneous xenograft tumor model; parameters: species or system female BALB/c nude mice; settings: for Tumor volume (Day 0): Day 0, Mean ± SEM; for Tumor volume (Day 0) / Tumor volume (Day 21) / Tumor weight (Day 21): n = 9; for RTV (Day 21) / T/C (%) (Day 21) / T/Cweight (%) / TGI (%) (Day 21): Day 21; for Tumor volume (Day 21) / Tumor weight (Day 21): Day 21, Mean ± SEM
Method: Experimental purpose: To study the in vivo pharmacodynamics of the test compound in the BALB/c nude mouse model with subcutaneous xenograft tumor of human […] NCI-H1703 cells.
Experimental animals: Experimental animals: female BALB/c nude mice, 6 to 8 weeks of age, weighing 18 to 22 grams; supplier: Shanghai Sippr-BK Lab.Animal Co.Ltd.
Human non-small cell lung cancer NCI-H1703 cells were cultured in vitro in RPMI1640 medium with 10% fetal bovine serum, 100 U/mL penicillin, and 100 μg/mL streptomycin, and cultured at 37° C. in a 5% CO2 incubator. Conventional digestion with trypsin-EDTA was performed twice a week for passaging. When the cell saturation was 80% to 90% and the number of cells reached the requirement, and the cells were collected, counted, and seeded.
0.2 mL (5×10^6) NCI-H1703 cells (added with Matrigel, volume ratio of 1:1) were subcutaneously inoculated on the right back of each mouse, and the administration in groups began when the average tumor volume reached about 130 mm^3.
The compound of formula (I) was prepared into 3 mg/mL, 6 mg/mL, and 9 mg/mL suspension solutions with 98.5% water+0.5% HPMC+1% Tween 80.
Tumor diameters were measured with a vernier caliper twice a week. The formula for calculating tumor volume is: V=0.5a×b^2, wherein a and b represent the long and short diameters of the tumor, respectively. The relative tumor volume (RTV) was calculated based on the results of tumor measurement. The calculation formula is RTV=Vt/V0, wherein V0 is the tumor volume measured at the time of group administration (i.e., day 0), and Vt is the tumor volume at one measurement. Data of the same day was taken for TRTV and CRTV.
The tumor inhibitory effect of the compound was evaluated by TGI (%, reflecting the tumor growth inhibition rate) or relative tumor proliferation rate T/C (%):
T/C (%)=TRTV/CRTV×100%, TRTV represents the average RTV of the treatment group, and CRTV represents the average RTV of the negative control group.
TGI (%)=[1−(average tumor volume at the end of administration in a certain treatment group−average tumor volume at the beginning of administration in this treatment group)/(average tumor volume at the end of treatment in the vehicle control group−average tumor volume at the beginning of treatment in the vehicle control group)]×100%.
After the experiment, the tumor weight (TW) was detected and T/Cweight (%) was calculated. The calculation formula is: T/Cweight (%)=TWtreatment/TWvehicle×100%. TWtreatment and TWvehicle represent the tumor weights of the administration group and vehicle control group, respectively.
Statistical analysis was performed using SPSS software based on RTV data at the end of the experiment. […] T-test was used to analyze the comparison between two groups, and one-way ANOVA was used to analyze the comparisons between three or more groups. If the variance was homogeneous (F value had no significant difference), Tukey's method is used for analysis; if the variance was not homogeneous (F value had significant difference), and the Games-Howell method was used for testing. p<0.05 was considered a significant difference.

Cc1cc2ncnn2cc1Nc1ncc2c(n1)n(N1CC3CCC(C1)O3)c(=O)n2C [Crystal form A of the compound of formula (I)] gave an AUC0-last [1] of 83.483 µM·h, a Cmax [1] of 14.6 µM and a T1/2 [1] of 1.59 h. The Tmax [1] was 0.67 h.
For Cc1cc2ncnn2cc1Nc1ncc2c(n1)n(N1CC3CCC(C1)O3)c(=O)n2C [Crystal form B of the compound of formula (II-1)], the T1/2 [1] was 4.07 h, the Tmax [1] was 1.33 h and the Hygroscopicity classification [2] was “slightly hygroscopic”. For the same compound, the “Purity (area %)” value ([3]; 0 days (initial)) was 99.70 area %, the “Purity (area %)” value ([3]; 40° C., relative humidity of 75%, open, one month) was 99.77 area % and the “Purity (area %)” value ([3]; 40° C., relative humidity of 75%, open, three months) was 99.72 area %. For the same compound, the “Purity (area %)” value ([3]; 40° C., relative humidity of 75%, open, two months) was 99.76 area %, the “Purity (area %)” value ([3]; 60° C., relative humidity of 75%, open, one month) was 99.76 area % and the “Purity (area %)” value ([3]; 60° C., relative humidity of 75%, open, three months) was 99.73 area %. The “Purity (area %)” value ([3]; 60° C., relative humidity of 75%, open, two months) was 99.73 area %, the “Purity (area %)” value ([3]; High humidity (25° C., relative humidity of 92.5%, open), 10 days) was 99.75 area % and the “Purity (area %)” value ([3]; High temperature (60° C., open), 10 days) was 99.71 area %. For the same compound, the “Purity (area %)” value ([3]; Shaded control group, wrapped with tin foil, placed with visible light + UV) was 99.75 area % and the “Purity (area %)” value ([3]; Visible light + UV (ICH conditions), 1,200,000 Lux·hrs, 200 W·hrs/m^2) was 99.77 area %.
Cc1cc2ncnn2cc1Nc1ncc2c(n1)n(N1CC3CCC(C1)O3)c(=O)n2C showed an AUC(0-t) ([1]; male, SD, rat, po) of 87.4 µM·h, a Cmax ([1]; male, SD, rat, po) of 11.1 µM and a pIC50 (Human DNA-PK) of 9.22.
Work on Cc1cc2ncnn2cc1Nc1ncc2c(n1)n(N1CC3CCC(C1)O3)c(=O)n2C [Crystal form K of the compound of formula (VIII-1)] yielded an AUC0-last [1] of 127.313 µM·h, a Cmax [1] of 21.7 µM and a T1/2 [1] of 2.42 h. It also gave a Tlast [1] of 32.0 h and a Tmax [1] of 1.50 h.
For Cc1cc2ncnn2cc1Nc1ncc2c(n1)n(N1CC3CCC(C1)O3)c(=O)n2C [Compound of formula (I)], the “Tumor volume (Day 0)” value ([4]; 30 mg/kg) was 131 ± 10 mm^3, the “RTV (Day 21)” value ([4]; 30 mg/kg) was 7.57 ± 0.53 and the “T/C (%) (Day 21)” value ([4]; 30 mg/kg) was 79.3%. The “T/Cweight (%)” value ([4]; 30 mg/kg) was 79.6%, the “TGI (%) (Day 21)” value ([4]; 30 mg/kg) was 20.6% and the “Tumor volume (Day 21)” value ([4]; 30 mg/kg) was 979 ± 86 mm^3. The “Tumor weight (Day 21)” value ([4]; 30 mg/kg) was 1.031 ± 0.095 g, the “Tumor volume (Day 0)” value ([4]; 60 mg/kg) was 131 ± 10 mm^3 and the “RTV (Day 21)” value ([4]; 60 mg/kg) was 3.31 ± 0.51. The “T/C (%) (Day 21)” value ([4]; 60 mg/kg) was 34.7%, the “T/Cweight (%)” value ([4]; 60 mg/kg) was 36.0% and the “TGI (%) (Day 21)” value ([4]; 60 mg/kg) was 72.3%. The “Tumor volume (Day 21)” value ([4]; 60 mg/kg) was 427 ± 64 mm^3, the “Tumor weight (Day 21)” value ([4]; 60 mg/kg) was 0.467 ± 0.078 g and the “Tumor volume (Day 0)” value ([4]; 90 mg/kg) was 130 ± 10 mm^3. For the same compound, the “RTV (Day 21)” value ([4]; 90 mg/kg) was 2.64 ± 0.45, the “T/C (%) (Day 21)” value ([4]; 90 mg/kg) was 27.7% and the “T/Cweight (%)” value ([4]; 90 mg/kg) was 29.2%. For the same compound, the “TGI (%) (Day 21)” value ([4]; 90 mg/kg) was 79.4%, the “Tumor volume (Day 21)” value ([4]; 90 mg/kg) was 351 ± 64 mm^3 and the “Tumor weight (Day 21)” value ([4]; 90 mg/kg) was 0.379 ± 0.069 g.
